From DBAASP
Values after ≈ are worked out from the molar mass of the structure shown. Values joined by “and” are separate entries in the source; they are usually repeats but may differ in a detail not shown here. Identical values can stand only once.

Key:
Test in all cases: ≥ marks a high value that may be exact or a test limit, other limits are often not marked, values filed in µg/mL are converted to µM
[1] = system: Pseudomonas aeruginosa PA214
[2] = system: Pseudomonas aeruginosa PA287
[3] = system: Pseudomonas aeruginosa PAO1
[4] = system: Escherichia coli K-12
[5] = system: Streptococcus pneumoniae ATCC 49619
[6] = system: Pseudomonas aeruginosa ATCC 19660
[7] = system: Enterococcus faecium ATCC 700221
[8] = system: Pseudomonas aeruginosa ATCC 27853
[9] = system: Staphylococcus epidermidis ATCC 51625
[10] = system: Klebsiella aerogenes ATCC 13048
[11] = system: Acinetobacter baumannii ATCC 17978D-5
[12] = system: Staphylococcus aureus ATCC 33591
[13] = system: Enterobacter cloacae ATCC 13047
[14] = system: Staphylococcus aureus SAP 0017
[15] = system: Pseudomonas aeruginosa H187
[16] = system: Pseudomonas aeruginosa Z61
[17] = system: Staphylococcus epidermidis
[18] = system: Pseudomonas aeruginosa H744
[19] = system: Acinetobacter calcoaceticus ATCC 23055
[20] = system: Enterococcus faecalis ATCC 29212
[21] = system: Burkholderia cepacia ATCC 25416
[22] = system: Staphylococcus aureus ATCC 25923
[23] = system: Stenotrophomonas maltophilia ATCC 13637
[24] = system: Streptococcus pyogenes ATCC 19615
[25] = system: Pseudomonas aeruginosa K799
[26] = system: Pseudomonas aeruginosa H374
[27] = system: Escherichia coli UB1005
[28] = system: Staphylococcus haemolyticus
[29] = system: Pseudomonas aeruginosa H103
[30] = system: Corynebacterium xerosis
[31] = system: Listeria monocytogenes NCTC 7973
[32] = system: Escherichia coli O111:B4
[33] = system: Pseudomonas aeruginosa H547
[34] = system: Staphylococcus aureus K147
[35] = system: Candida albicans CAN105
[36] = system: Salmonella enterica subsp. enterica serovar Typhimurium ATCC 14028s
[37] = system: Acinetobacter baumannii CCARM 12035
[38] = system: Pseudomonas aeruginosa KCTC 1637
[39] = system: Salmonella typhimurium CCARM 8009
[40] = system: Escherichia coli CCARM 1229
[41] = system: Salmonella typhimurium KCTC 1926
[42] = system: Enterococcus faecalis KCTC 2011
[43] = system: Bacillus subtilis KCTC 3068
[44] = system: Escherichia coli KCTC 1682
[45] = system: Pseudomonas aeruginosa CCARM 2095
[46] = system: Staphylococcus aureus KCTC 1621
[47] = system: Klebsiella pneumoniae ATCC 700603
[48] = system: Acinetobacter baumannii ATCC 19606
[49] = system: Escherichia coli
[50] = system: Escherichia coli BW25113
[51] = system: Escherichia coli BW25113 ΔsbmA

**Q.** `C[C@H](NC(=O)[C@H](C)NC(=O)[C@H](CCCCN)NC(=O)[C@H](Cc1ccccc1)NC(=O)[C@H](C)NC(=O)[C@H](CCCCN)NC(=O)[C@H](C)NC(=O)[C@H](Cc1c[nH]c2ccccc12)NC(=O)[C@H](C)NC(=O)[C@H](CCCCN)NC(=O)[C@H](C)NC(=O)[C@H](Cc1ccccc1)NC(=O)[C@H](C)NC(=O)[C@H](C)NC(=O)[C@H](CCCCN)NC(=O)[C@H](CCCCN)NC(=O)[C@@H](N)CCCCN)C(N)=O` [KKKAAFAKAWAKAFKAA] was tested. Which MIC [1] did it give?
**A.** ≥ 50 µM

**Q.** And the MIC [2]?
**A.** ≥ 50 µM

**Q.** What about the MIC [3] of the same molecule?
**A.** 50 µM (≈ 91.8 µg/mL)

**Q.** What about the MIC [4] of the same molecule?
**A.** 25 µM (≈ 45.9 µg/mL)

**Q.** What does the source list for `CC[C@H](C)[C@H](NC(=O)[C@H](CCCCN)NC(=O)[C@@H]1CCCN1C(=O)[C@@H]1CCCN1C(=O)[C@H](CC(C)C)NC(=O)[C@H](CCCCN)NC(=O)[C@@H]1CCCN1C(=O)[C@@H]1CCCN1C(=O)[C@H](Cc1ccccc1)NC(=O)[C@H](Cc1ccccc1)NC(=O)[C@@H]1CCCN1C(=O)[C@@H]1CCCN1C(=O)[C@@H]1CCCN1C(=O)[C@H](CCCCN)NC(=O)[C@@H]1CCCN1C(=O)[C@H](CCCCN)NC(=O)[C@@H]1CCCN1C(=O)[C@H](CC(C)C)NC(=O)[C@H](Cc1ccc(O)cc1)NC(=O)[C@@H]1CCCN1C(=O)[C@@H]1CCCN1C(=O)[C@H](CCCCN)NC(=O)[C@@H]1CCCN1C(=O)[C@H](CCCCN)NC(=O)[C@H](CCCCN)NC(=O)[C@@H](N)CCCCN)C(=O)O` [KKKPKPPYLPKPKPPPFFPPKLPPKI]?
**A.** MIC [5]: 21.3 µM (≈ 64 µg/mL); MIC [6]: 21.3 µM (≈ 64 µg/mL); MIC [7]: 21.3 µM (≈ 64 µg/mL); MIC [8]: > 21.3 µM; MIC [9]: 21.3 µM (≈ 64 µg/mL); MIC [10]: 21.3 µM (≈ 64 µg/mL); MIC [11]: 21.3 µM (≈ 64 µg/mL); MIC [12]: 21.3 µM (≈ 64 µg/mL)

**Q.** With `CC[C@H](C)[C@H](NC(=O)[C@H](CC(C)C)NC(=O)[C@H](C)NC(=O)[C@@H]1CCCN1C(=O)[C@H](CC(C)C)NC(=O)CNC(=O)[C@@H](NC(=O)[C@@H](NC(=O)[C@H](CC(C)C)NC(=O)[C@@H](NC(=O)[C@H](CCCCN)NC(=O)[C@H](CCCCN)NC(=O)[C@@H](NC(=O)[C@H](C)NC(=O)[C@@H](NC(=O)[C@@H](NC(=O)[C@H](CC(C)C)NC(=O)[C@H](CCCCN)NC(=O)[C@H](CCCCN)NC(=O)[C@@H](NC(=O)[C@H](Cc1ccccc1)NC(=O)[C@H](CO)NC(=O)[C@H](CCCCN)NC(=O)[C@H](Cc1c[nH]c2ccccc12)NC(=O)[C@@H](N)CCCCN)[C@@H](C)CC)[C@@H](C)O)[C@@H](C)O)C(C)C)C(C)C)[C@@H](C)O)[C@@H](C)O)C(=O)N[C@@H](CO)C(=O)O` [KWKSFIKKLTTAVKKVLTTGLPALIS] as the molecule, how does the MIC [13] read?
**A.** 0.696 µM (≈ 2 µg/mL)

**Q.** What about the MIC [14] of the same molecule?
**A.** 2.79 µM (≈ 8 µg/mL)

**Q.** What about the MIC [15] of the same molecule?
**A.** 5.57 µM (≈ 16 µg/mL)

**Q.** And the MIC [16]?
**A.** 1.04 µM (≈ 3 µg/mL)

**Q.** And the MIC [17]?
**A.** 5.57 µM (≈ 16 µg/mL)

**Q.** And the MIC [18]?
**A.** 0.696 µM (≈ 2 µg/mL)

**Q.** What about the MIC [19] of the same molecule?
**A.** 1.39 µM (≈ 4 µg/mL)

**Q.** What about the MIC [20] of the same molecule?
**A.** 22.3 µM (≈ 64 µg/mL)

**Q.** And the MIC [21]?
**A.** 22.3 µM (≈ 64 µg/mL)

**Q.** What about the MIC [22] of the same molecule?
**A.** 2.79 µM (≈ 8 µg/mL)

**Q.** What about the MIC [23] of the same molecule?
**A.** 1.04 µM (≈ 3 µg/mL)

**Q.** And the MIC [24]?
**A.** 2.79 µM (≈ 8 µg/mL)

**Q.** What about the MIC [25] of the same molecule?
**A.** 2.09 µM (≈ 6 µg/mL)

**Q.** And the MIC [8]?
**A.** 5.57 µM (≈ 16 µg/mL)

**Q.** What about the MIC [26] of the same molecule?
**A.** 0.696 µM (≈ 2 µg/mL)

**Q.** And the MIC [27]?
**A.** 0.696 µM (≈ 2 µg/mL)

**Q.** What about the MIC [28] of the same molecule?
**A.** 2.79 µM and 5.57 µM

**Q.** And the MIC [29]?
**A.** 1.39 µM (≈ 4 µg/mL)

**Q.** And the MIC [30]?
**A.** 0.696 µM (≈ 2 µg/mL)

**Q.** What about the MIC [31] of the same molecule?
**A.** 1.39 µM (≈ 4 µg/mL)

**Q.** What about the MIC [32] of the same molecule?
**A.** 0.696 µM (≈ 2 µg/mL)

**Q.** And the MIC [33]?
**A.** 0.696 µM (≈ 2 µg/mL)

**Q.** What about the MIC [34] of the same molecule?
**A.** 11.1 µM (≈ 32 µg/mL)

**Q.** And the MIC [35]?
**A.** 11.1 µM (≈ 32 µg/mL)

**Q.** What about the MIC [36] of the same molecule?
**A.** 0.696 µM (≈ 2 µg/mL)

**Q.** Which results are given for `CC[C@H](C)[C@H](NC(=O)CNC(=O)[C@H](CC(=O)O)NC(=O)[C@H](CCCN=C(N)N)NC(=O)[C@@H](NC(=O)[C@H](CC(N)=O)NC(=O)[C@H](CCCN=C(N)N)NC(=O)CNC(=O)[C@@H](NC(=O)[C@H](CCCCN)NC(=O)[C@H](CCC(=O)O)NC(=O)[C@@H](NC(=O)[C@H](CCCCN)NC(=O)[C@H](CCCCN)NC(=O)[C@H](C)NC(=O)[C@@H](NC(=O)[C@H](CCCCN)NC(=O)[C@H](C)NC(=O)[C@@H](N)CCCN=C(N)N)[C@@H](C)CC)[C@@H](C)CC)C(C)C)C(C)C)C(=O)N[C@H](C(=O)N[C@@H](CCCCN)C(=O)N[C@@H](C)C(N)=O)[C@@H](C)CC` [RAKIAKKIEKVGRNVRDGIIKA]?
**A.** MIC [37]: ≥ 32 µM; MIC [38]: 8 µM (≈ 19.7 µg/mL); MIC [39]: 8 µM (≈ 19.7 µg/mL); MIC [40]: 4 µM (≈ 9.85 µg/mL); MIC [41]: 4 µM (≈ 9.85 µg/mL); MIC [42]: ≥ 128 µM; MIC [43]: ≥ 128 µM; MIC [44]: 2 µM (≈ 4.93 µg/mL); MIC [45]: 16 µM (≈ 39.4 µg/mL); MIC [46]: ≥ 128 µM

**Q.** With `CC[C@H](C)[C@H](NC(=O)[C@@H]1CCCN1C(=O)[C@H](Cc1c[nH]c2ccccc12)NC(=O)[C@H](CCCN=C(N)N)NC(=O)[C@H](Cc1ccccc1)NC(=O)[C@@H](N)CCCN=C(N)N)C(=O)N[C@@H](CCCN=C(N)N)C(=O)N[C@@H](CCCN=C(N)N)C(=O)N1CCC[C@H]1C(=O)N1CCC[C@H]1C(=O)N[C@H](C(=O)N[C@@H](CCCN=C(N)N)C(=O)N1CCC[C@H]1C(=O)N1CCC[C@H]1C(=O)N[C@@H](Cc1ccccc1)C(=O)N[C@@H](Cc1ccc(O)cc1)C(=O)N[C@@H](CCCN=C(N)N)C(=O)O)[C@@H](C)CC` [RFRWPIRRPPIRPPFYR] as the molecule, how does the MIC [47] read?
**A.** 24 µM (≈ 55.5 µg/mL)

**Q.** What about the MIC [48] of the same molecule?
**A.** 8 µM (≈ 18.5 µg/mL)

**Q.** And the MIC [49]?
**A.** 2.83 µM (≈ 6.54 µg/mL)

**Q.** What about the MIC [22] of the same molecule?
**A.** > 64 µM

**Q.** What about the MIC [50] of the same molecule?
**A.** 4 µM (≈ 9.24 µg/mL)

**Q.** And the MIC [51]?
**A.** 8 µM (≈ 18.5 µg/mL)

**Q.** And the MIC [8]?
**A.** 64 µM (≈ 148 µg/mL)
